Source: patent US10519177B2, “Heterocyclic compounds and uses thereof” (Plexxikon Inc., priority 2013, dated 2019)
Where two headings read alike, the source gives them in different places.

What was measured:
[1] = test system: bromodomain; experiment: at least one of the bromodomain cell assays of Example 57; format: cell-based; conditions: at least one of the bromodomain cell assays described in Example 57; read-out: IC50 in at least one of the bromodomain cell assays
[2] = target: BRD4-BD12 (1-477) (Homo sapiens (Human), UniProt O60885); experiment: Alphascreen binding assay BRD4-BD12; conditions: BRD4(1 2) H4; read-out: Biochemical activity (IC50 μM) BRD4(1 2) H4
In short: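 In this competition format, compounds displace a biotinylated tetra-acetyl H4 peptide from E. coli-expressed human BRD4 bromodomain constructs captured on nickel chelate beads. The reaction runs at pH 7.5 with 2 mM DTT and detergent for 1 h at room temperature before a 30 min bead step.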

[3] = test system: MV-4-11 cells; experiment: Oncology cell growth assay MV-4-11 (CellTiter Glo); format: cell-based; conditions: Homo sapiens, MV4-11, 72 h, read-out: Cell activity (IC50 μM) MV-4-11 3d-Growth
In short: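 Growth read by CellTiter Glo luminescence after 72 h compound treatment of MLL-AF4-bearing MV-4-11 cells (3000/well). Titration: 8 points, 1:3 steps, maximum 10 μM, 0.2% DMSO final. Data normalized to DMSO wells, four-parameter fit gives pIC50.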

Row | Structure (SMILES) | IC50 [1] [µM] | IC50 [2] [µM] | IC50 ([3]; MV-4-11, 3d growth) [µM] | IC50 [3] [µM]
1 | Cc1noc(C)c1-c1cnc2c(-c3ccc(C(=O)O)cc3)cn(CC3(C)CCOCC3)c2c1 [P-0774, 4-[6-(3,5-dimethylisoxazol-4-yl)-1-[(4-methyltetrahydropyran-4-yl)methyl]pyrrolo[3,2-b]pyridin-3-yl]benzoic acid] | < 10 | < 1 | < 1 | 
2 | Cc1noc(C)c1-c1cnc2c(-c3ccc(CC(=O)O)cc3)cn([C@@H](C)c3ccccn3)c2c1 [P-0558, 2-[4-[6-(3,5-dimethylisoxazol-4-yl)-1-[(1S)-1-(2-pyridyl)ethyl]pyrrolo[3,2-b]pyridin-3-yl]phenyl]acetic acid] | < 10 | < 1 | < 1 | 
3 | COC(=O)Cc1ccc(-c2cn(CC3CCCCC3)c3cc(-c4c(C)noc4C)cnc23)cc1 [P-0589, methyl 2-[4-[1-(cyclohexylmethyl)-6-(3,5-dimethylisoxazol-4-yl)pyrrolo[3,2-b]pyridin-3-yl]phenyl]acetate] | < 10 | < 1 | < 1 | 
4 | Cc1noc(C)c1-c1cnc2c(-c3ccc(CC(=O)O)cc3)cn(CC3CCCC3)c2c1 [P-0591, 2-[4-[1-(cyclopentylmethyl)-6-(3,5-dimethylisoxazol-4-yl)pyrrolo[3,2-b]pyridin-3-yl]phenyl]acetic acid] | < 10 | < 1 | < 1 | 
5 | COCc1ccc(-c2cn(CC3CCCCC3)c3cc(-c4c(C)noc4C)cnc23)cc1 [P-0705, 4-[1-(cyclohexylmethyl)-3-[4-(methoxymethyl)phenyl]pyrrolo[3,2-b]pyridin-6-yl]-3,5-dimethyl-isoxazole] | < 10 | < 1 | < 1 | 
6 | Cc1noc(C)c1-c1cnc2c(-c3ccc(C#N)cc3)cn(CC3(F)CCCCC3)c2c1 [P-0457, 4-[6-(3,5-dimethylisoxazol-4-yl)-1-[(1-fluorocyclohexyl)methyl]pyrrolo[3,2-b]pyridin-3-yl]benzonitrile] | < 10 | < 1 | < 1 | 
7 | Cc1noc(C)c1-c1cnc2c(-c3cnn(C(F)F)c3)cn([C@H](C)c3ccccn3)c2c1 [P-0515, 4-[3-[1-(difluoromethyl)pyrazol-4-yl]-1-[(1R)-1-(2-pyridyl)ethyl]pyrrolo[3,2-b]pyridin-6-yl]-3,5-dimethyl-isoxazole] | < 10 | < 1 | < 1 | 
8 | CC[C@H](c1ccccc1)n1cc(-c2ccc(C(=O)OC)cc2)c2ncc(-c3c(C)noc3C)cc21 [P-0569, methyl 4-[6-(3,5-dimethylisoxazol-4-yl)-1-[(1R)-1-phenylpropyl]pyrrolo[3,2-b]pyridin-3-yl]benzoate] | < 10 | < 1 | < 1 | 
9 | Cc1noc(C)c1-c1cnc2c(-c3cn(C)nc3C(F)(F)F)cn(CC3CCC(F)(F)CC3)c2c1 [P-0410, 4-[1-[(4,4-difluorocyclohexyl)methyl]-3-[1-methyl-3-(trifluoromethyl)pyrazol-4-yl]pyrrolo[3,2-b]pyridin-6-yl]-3,5-dimethyl-isoxazole] | < 10 | < 1 |  | < 1
10 | Cc1noc(C)c1-c1cnc2c(-c3cccnc3)cn(CC3CCC(F)(F)CC3)c2c1 [P-0388, 4-[1-[(4,4-difluorocyclohexyl)methyl]-3-(3-pyridyl)pyrrolo[3,2-b]pyridin-6-yl]-3,5-dimethyl-isoxazole] | < 10 | < 1 |  | < 1
11 | Cc1noc(C)c1-c1cnc2c(I)cn(CC3CCCCCCC3)c2c1 [P-0577, 4-[1-(cyclooctylmethyl)-3-iodo-pyrrolo[3,2-b]pyridin-6-yl]-3,5-dimethyl-isoxazole] | < 10 | < 1 | < 1 | 
12 | Cc1noc(C)c1-c1cnc2c(c1)c(CC1CCC(F)(F)CC1)cn2-c1ccc(C(=O)NC2CC2)cn1 [P-0533, N-cyclopropyl-6-[3-[(4,4-difluorocyclohexyl)methyl]-5-(3,5-dimethylisoxazol-4-yl)pyrrolo[2,3-b]pyridin-1-yl]pyridine-3-carboxamide] | < 10 | < 1 | < 1 | 
13 | Cc1noc(C)c1-c1cnc2c(-c3cnn(CC(F)(F)F)c3)cn(Cc3cccnn3)c2c1 [P-0531, 3,5-dimethyl-4-[1-(pyridazin-3-ylmethyl)-3-[1-(2,2,2-trifluoroethyl)pyrazin-4-yl]pyrrolo[3,2-b]pyridin-6-yl]isoxazole] | < 10 | < 1 | < 1 | 
14 | Cc1noc(C)c1-c1cnc2c(-c3ccc4[nH]ncc4c3)cn(CC3(F)CCCCC3)c2c1 [P-0499, 4-[1-[(1-fluorocyclohexyl)methyl]-3-(1H-indazol-5-yl)pyrrolo[3,2-b]pyridin-6-yl]-3,5-dimethyl-isoxazole] | < 10 | < 1 | < 1 | 
15 | Cc1noc(C)c1-c1cnc2c(-c3cnn(CC(=O)O)c3)cn(CC3(F)CCC(F)(F)CC3)c2c1 [P-0386, 2-[4-[6-(3,5-dimethylisoxazol-4-yl)-1-[(1,4,4-trifluorocyclohexyl)methyl]pyrrolo[3,2-b]pyridin-3-yl]pyrazol-1-yl]acetic acid] | < 10 | < 1 |  | 10 to 200
16 | CCOC(=O)c1ccc(-c2cn(CC3CCC(F)(F)CC3)c3cc(-c4c(C)noc4C)cnc23)cc1Cl [P-0534, ethyl 2-chloro-4-[1-[(4,4-difluorocyclohexyl)methyl]-6-(3,5-dimethylisoxazol-4-yl)pyrrolo[3,2-b]pyridin-3-yl]benzoate] | < 10 | < 1 | 1 to 10 | 
17 | Cc1noc(C)c1-c1cnc2c(-c3ccc(C(N)=O)cc3)cn(CC3CCC(F)(F)CC3)c2c1 [P-0389, 4-[1-[(4,4-difluorocyclohexyl)methyl]-6-(3,5-dimethylisoxazol-4-yl)pyrrolo[3,2-b]pyridin-3-yl]benzamide] | < 10 | < 1 |  | < 1
18 | CCNS(=O)(=O)c1ccc(-c2cn([C@@H](C)c3ccccn3)c3cc(-c4c(C)noc4C)cnc23)cc1 [P-0556, 4-[6-(3,5-dimethylisoxazol-4-yl)-1-[(1S)-1-(2-pyridyl)ethyl]pyrrolo[3,2-b]pyridin-3-yl]-N-ethyl-benzenesulfonamide] | < 10 | < 1 | < 1 | 
19 | Cc1noc(C)c1-c1cnc2c(-c3ccc(C#N)cc3)cn(C(c3ccccn3)c3ccccn3)c2c1 [P-0592, 4-[1-[bis(2-pyridyl)methyl]-6-(3,5-dimethylisoxazol-4-yl)pyrrolo[3,2-b]pyridin-3-yl]benzonitrile] | < 10 | < 1 | < 1 | 
20 | Cc1noc(C)c1-c1cnc2c(-c3ccc(O)nc3)cn(CC3CCC(F)(F)CC3)c2c1 [P-0402, 5-[1-[(4,4-difluorocyclohexyl)methyl]-6-(3,5-dimethylisoxazol-4-yl)pyrrolo[3,2-b]pyridin-3-yl]pyridin-2-ol] | < 10 | < 1 |  | < 1
21 | Cc1noc(C)c1-c1cnc2c(-c3cccc(C(=O)O)c3)cn(CC3CCC(F)(F)CC3)c2c1 [P-0393, 3-[1-[(4,4-difluorocyclohexyl)methyl]-6-(3,5-dimethylisoxazol-4-yl)pyrrolo[3,2-b]pyridin-3-yl]benzoic acid] | < 10 | < 1 |  | < 1
22 | Cc1noc(C)c1-c1cnc2c(I)cn(C(c3ccccn3)c3ccccn3)c2c1 [P-0575, 4-[1-[bis(2-pyridyl)methyl]-3-iodo-pyrrolo[3,2-b]pyridin-6-yl]-3,5-dimethyl-isoxazole] | < 10 | < 1 | < 1 | 
23 | [2H]C([2H])(C1CCC(F)(F)CC1)n1cc(-c2ccc(=O)n(C)c2)c2ncc(-c3c(C)noc3C)cc21 [P-0345, 5-[1-[dideuterio-(4,4-difluorocyclohexyl)methyl]-6-(3,5-dimethylisoxazol-4-yl)pyrrolo[3,2-b]pyridin-3-yl]-1-methyl-pyridin-2-one] | < 10 | < 1 |  | < 1
24 | COC(=O)c1ccc(-n2cc(CC3CCC(F)(F)CC3)c3cc(-c4c(C)noc4C)cnc32)cc1 [P-0544, methyl 4-[3-[(4,4-difluorocyclohexyl)methyl]-5-(3,5-dimethylisoxazol-4-yl)pyrrolo[2,3-b]pyridin-1-yl]benzoate] | < 10 | < 1 | 1 to 10 | 
25 | [2H]C([2H])(C1CC(F)(F)C1)n1cc(-c2cn[nH]c2)c2ncc(-c3c(C)noc3C)cc21 [P-0255, 4-[1-[dideuterio-(3,3-difluorocyclobutyl)methyl]-3-(1H-pyrazol-4-yl)pyrrolo[3,2-b]pyridin-6-yl]-3,5-dimethyl-isoxazole] | < 10 | < 1 |  | < 1
26 | COC(=O)c1ccc(-c2cn(C(C)(C)c3ccccn3)c3cc(-c4c(C)noc4C)cnc23)cc1 [P-0547, methyl 4-[6-(3,5-dimethylisoxazol-4-yl)-1-[1-methyl-1-(2-pyridyl)ethyl]pyrrolo[3,2-b]pyridin-3-yl]benzoate] | < 10 | < 1 | < 1 | 
27 | Cc1noc(C)c1-c1cnc2c(Br)c[nH]c2c1 [P-0263, 4-(3-bromo-1H-pyrrolo[3,2-b]pyridin-6-yl)-3,5-dimethyl-isoxazole] | < 10 | < 1 |  | 
28 | Cc1noc(C)c1-c1cnc2c(-c3ccccc3C(=O)O)cn(CC3CCC(F)(F)CC3)c2c1 [P-0398, 2-[1-[(4,4-difluorocyclohexyl)methyl]-6-(3,5-dimethylisoxazol-4-yl)pyrrolo[3,2-b]pyridin-3-yl]benzoic acid] |  | < 1 |  | < 1
